Laboratory results: ChEMBL document CHEMBL1201862, “PubChem BioAssay data set” (2004)
The source made the active and inactive calls.

How the values were obtained:
[1] = Luminescence-based cell-based high throughput dose response assay to identify activators of the DAF-12 from the parasite S. stercoralis (ssDAF-12).; type: functional
[2] = biological target: T1, Oxysterols receptor LXR-beta (Homo sapiens, UniProt P55055); assay: LXR agonists, Gal4 luciferase reporter, dose response, counter-screen for ssDAF-12 agonist project, cell-based, luminescence, HEK293, S. stercoralis campaign (AID 720737); type: functional; conditions: read-out: IC50 (the source's name)
T1 sequence (P55055 whole entry): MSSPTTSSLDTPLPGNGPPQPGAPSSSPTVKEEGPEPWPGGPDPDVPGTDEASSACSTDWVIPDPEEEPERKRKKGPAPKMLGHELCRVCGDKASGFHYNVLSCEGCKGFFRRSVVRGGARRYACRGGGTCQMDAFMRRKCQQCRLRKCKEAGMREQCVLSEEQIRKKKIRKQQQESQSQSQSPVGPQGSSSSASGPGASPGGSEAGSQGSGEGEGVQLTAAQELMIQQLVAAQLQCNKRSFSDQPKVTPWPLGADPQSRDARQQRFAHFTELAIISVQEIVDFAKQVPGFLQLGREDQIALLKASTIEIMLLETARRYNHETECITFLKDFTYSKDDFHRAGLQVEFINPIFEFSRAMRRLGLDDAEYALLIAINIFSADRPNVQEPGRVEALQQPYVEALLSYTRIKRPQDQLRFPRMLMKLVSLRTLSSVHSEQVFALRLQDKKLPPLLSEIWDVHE

[3] = biological target: T2, 1-phosphatidylinositol 4,5-bisphosphate phosphodiesterase gamma-1 (Homo sapiens, UniProt P19174); assay: Counterscreen for inhibitors of phospholipase C isozymes (PLC-B3): Fluorescence-based biochemical high throughput dose response assay to identify inhibitors of phospholipase C isozymes (PLC-gamma1).
T2 sequence (P19174 whole entry): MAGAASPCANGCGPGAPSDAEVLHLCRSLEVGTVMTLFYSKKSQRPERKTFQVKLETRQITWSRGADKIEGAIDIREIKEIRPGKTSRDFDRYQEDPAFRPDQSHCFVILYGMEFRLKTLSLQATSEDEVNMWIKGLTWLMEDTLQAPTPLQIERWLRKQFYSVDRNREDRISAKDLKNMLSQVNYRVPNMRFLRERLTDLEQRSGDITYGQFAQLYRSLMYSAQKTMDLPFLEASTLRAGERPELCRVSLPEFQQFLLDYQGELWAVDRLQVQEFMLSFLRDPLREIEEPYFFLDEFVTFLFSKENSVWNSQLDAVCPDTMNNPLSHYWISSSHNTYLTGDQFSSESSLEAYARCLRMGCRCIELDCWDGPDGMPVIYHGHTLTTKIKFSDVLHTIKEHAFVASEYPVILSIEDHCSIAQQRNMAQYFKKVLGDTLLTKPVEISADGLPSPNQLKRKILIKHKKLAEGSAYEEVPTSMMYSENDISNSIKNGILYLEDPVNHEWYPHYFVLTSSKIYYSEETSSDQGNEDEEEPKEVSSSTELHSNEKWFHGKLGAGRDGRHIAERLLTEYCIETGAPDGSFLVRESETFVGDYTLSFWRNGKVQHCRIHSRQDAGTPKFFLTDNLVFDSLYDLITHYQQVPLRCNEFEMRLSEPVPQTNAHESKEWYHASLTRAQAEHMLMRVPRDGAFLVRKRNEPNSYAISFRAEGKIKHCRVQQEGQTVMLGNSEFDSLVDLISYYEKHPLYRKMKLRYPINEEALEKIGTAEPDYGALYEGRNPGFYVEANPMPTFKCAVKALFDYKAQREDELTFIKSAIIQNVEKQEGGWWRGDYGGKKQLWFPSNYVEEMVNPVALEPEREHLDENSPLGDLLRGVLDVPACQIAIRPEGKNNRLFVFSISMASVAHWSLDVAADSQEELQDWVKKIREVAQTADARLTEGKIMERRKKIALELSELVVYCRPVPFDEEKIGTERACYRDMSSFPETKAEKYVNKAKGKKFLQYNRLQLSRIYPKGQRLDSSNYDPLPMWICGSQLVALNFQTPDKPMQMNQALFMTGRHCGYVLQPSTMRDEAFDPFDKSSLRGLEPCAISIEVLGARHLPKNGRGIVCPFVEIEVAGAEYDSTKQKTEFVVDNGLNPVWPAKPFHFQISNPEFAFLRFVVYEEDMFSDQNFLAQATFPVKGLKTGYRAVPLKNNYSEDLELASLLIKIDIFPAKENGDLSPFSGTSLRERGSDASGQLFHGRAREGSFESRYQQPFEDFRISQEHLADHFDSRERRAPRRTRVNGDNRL

[4] = biological target: T3, 1-phosphatidylinositol 4,5-bisphosphate phosphodiesterase beta-3 (Homo sapiens, UniProt Q01970); assay: Fluorescence-based biochemical high throughput dose response assay to identify inhibitors of phospholipase C isozymes (PLC-B3).
T3 sequence (Q01970 whole entry): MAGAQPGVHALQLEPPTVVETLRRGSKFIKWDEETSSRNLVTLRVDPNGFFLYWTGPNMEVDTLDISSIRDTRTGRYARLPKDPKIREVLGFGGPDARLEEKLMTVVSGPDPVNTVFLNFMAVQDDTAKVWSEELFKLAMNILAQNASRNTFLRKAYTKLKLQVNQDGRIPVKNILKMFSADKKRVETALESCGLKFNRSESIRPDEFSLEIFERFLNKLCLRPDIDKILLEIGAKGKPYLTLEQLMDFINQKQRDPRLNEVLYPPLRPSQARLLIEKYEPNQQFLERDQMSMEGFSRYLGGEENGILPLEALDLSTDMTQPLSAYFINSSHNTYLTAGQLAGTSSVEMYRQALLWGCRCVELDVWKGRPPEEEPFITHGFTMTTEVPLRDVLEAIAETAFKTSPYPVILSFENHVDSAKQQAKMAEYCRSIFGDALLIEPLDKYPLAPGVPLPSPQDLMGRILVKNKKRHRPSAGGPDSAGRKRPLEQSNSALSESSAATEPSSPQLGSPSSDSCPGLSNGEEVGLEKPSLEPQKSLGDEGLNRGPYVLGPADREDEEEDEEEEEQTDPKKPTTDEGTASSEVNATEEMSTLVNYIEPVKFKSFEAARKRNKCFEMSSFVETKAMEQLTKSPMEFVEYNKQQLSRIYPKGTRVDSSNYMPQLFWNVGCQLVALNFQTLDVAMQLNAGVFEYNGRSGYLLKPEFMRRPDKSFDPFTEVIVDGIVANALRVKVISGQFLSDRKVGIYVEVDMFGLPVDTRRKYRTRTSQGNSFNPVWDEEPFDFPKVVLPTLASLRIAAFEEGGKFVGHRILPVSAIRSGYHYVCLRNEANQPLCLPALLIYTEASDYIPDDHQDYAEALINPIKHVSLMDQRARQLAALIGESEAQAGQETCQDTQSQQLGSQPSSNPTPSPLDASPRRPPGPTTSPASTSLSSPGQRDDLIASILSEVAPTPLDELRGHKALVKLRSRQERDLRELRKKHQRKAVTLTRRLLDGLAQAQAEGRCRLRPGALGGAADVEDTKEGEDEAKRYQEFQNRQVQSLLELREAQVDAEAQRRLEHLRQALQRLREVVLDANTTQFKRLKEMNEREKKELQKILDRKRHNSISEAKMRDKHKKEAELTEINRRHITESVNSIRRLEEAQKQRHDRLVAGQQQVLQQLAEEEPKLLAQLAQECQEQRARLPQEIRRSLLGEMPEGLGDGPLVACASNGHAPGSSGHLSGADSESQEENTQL

[5] = biological target: T4, Heat shock factor protein 1 (Mus musculus, UniProt P38532); assay: HSF1 potentiators in luciferase reporter cells, confirmation, cell-based, NIH3T3, luminescence, dose retest (AID 435004); type: functional;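 note: stress induced by proteasome inhibitor MG132 added 30 min after compound; luciferase reporter driven by HSF1 response element in NIH3T3 cells; actives raise luminescence as potentiators of the MG132 stress response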
T4 sequence (P38532 whole entry): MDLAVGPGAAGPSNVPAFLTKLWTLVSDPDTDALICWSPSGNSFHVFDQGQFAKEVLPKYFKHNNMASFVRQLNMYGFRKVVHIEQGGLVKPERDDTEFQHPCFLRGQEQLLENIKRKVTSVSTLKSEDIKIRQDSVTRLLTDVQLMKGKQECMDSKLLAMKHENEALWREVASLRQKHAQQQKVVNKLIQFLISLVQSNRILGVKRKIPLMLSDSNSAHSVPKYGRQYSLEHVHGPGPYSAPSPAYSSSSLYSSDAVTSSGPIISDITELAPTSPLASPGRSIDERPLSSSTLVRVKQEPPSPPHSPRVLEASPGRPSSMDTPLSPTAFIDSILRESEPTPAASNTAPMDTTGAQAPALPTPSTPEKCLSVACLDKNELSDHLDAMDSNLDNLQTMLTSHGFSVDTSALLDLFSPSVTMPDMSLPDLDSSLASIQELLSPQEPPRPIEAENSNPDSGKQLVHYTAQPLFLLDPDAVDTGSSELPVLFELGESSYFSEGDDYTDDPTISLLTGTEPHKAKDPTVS

Kallikrein-7 = Kallikrein-7 (Homo sapiens, UniProt P49862); assay: Fluorescence Intensity-based biochemical primary high throughput dose response assay to identify activators of kallikrein-7 (K7) zymogen.
[6] = biological target: Disintegrin and metalloproteinase domain-containing protein 17 (Homo sapiens, UniProt P78536); assay: exosite inhibitors of ADAM17, dose response, biochemical (AID 743260)
[7] = ADAM10 protease inhibitors, dose response, selectivity assay for ADAM17 exosite inhibitor project, biochemical, FRET peptide substrate, recombinant human ADAM10 (AID 743259);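 note: ADAM10 enzyme cleaving a FRET peptide substrate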
HeLa = assay: HeLa cell cytotoxicity, dose response, cytotoxicity control, ATP luminescence, cherry-pick samples (AID 687004); type: functional, cell-based; conditions: Homo sapiens
[8] = HEp-2 cell cytotoxicity, dose response, cytotoxicity control for RSV inhibitor project, HTS (AID 2410); type: functional; conditions: human respiratory syncytial virus
[9] = biological target: T5, High affinity choline transporter 1 (Homo sapiens, UniProt Q9GZV3); assay: CHT inhibitors, dose response, cell-based, 5-point CRC, membrane potential dye (AID 504840); type: functional
T5 sequence (Q9GZV3 whole entry): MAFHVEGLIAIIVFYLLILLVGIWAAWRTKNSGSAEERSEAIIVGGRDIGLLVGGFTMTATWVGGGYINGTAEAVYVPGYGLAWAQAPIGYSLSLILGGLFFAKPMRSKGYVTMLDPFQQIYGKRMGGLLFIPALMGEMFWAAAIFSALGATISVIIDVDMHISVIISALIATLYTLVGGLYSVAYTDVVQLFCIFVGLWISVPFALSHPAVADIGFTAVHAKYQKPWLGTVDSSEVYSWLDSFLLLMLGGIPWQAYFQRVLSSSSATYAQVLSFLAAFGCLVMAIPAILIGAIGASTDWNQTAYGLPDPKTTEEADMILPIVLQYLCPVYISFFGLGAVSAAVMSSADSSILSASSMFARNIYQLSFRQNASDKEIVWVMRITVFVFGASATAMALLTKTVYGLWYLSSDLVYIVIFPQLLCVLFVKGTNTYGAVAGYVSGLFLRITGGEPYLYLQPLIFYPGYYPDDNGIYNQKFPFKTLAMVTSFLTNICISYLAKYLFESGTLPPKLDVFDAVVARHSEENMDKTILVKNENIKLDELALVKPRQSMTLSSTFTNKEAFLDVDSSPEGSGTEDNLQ

Vero = assay: cells; type: functional; conditions: Chlorocebus sabaeus

Sequence of Disintegrin and metalloproteinase domain-containing protein 17 (P78536 whole entry, the tested form may be a part): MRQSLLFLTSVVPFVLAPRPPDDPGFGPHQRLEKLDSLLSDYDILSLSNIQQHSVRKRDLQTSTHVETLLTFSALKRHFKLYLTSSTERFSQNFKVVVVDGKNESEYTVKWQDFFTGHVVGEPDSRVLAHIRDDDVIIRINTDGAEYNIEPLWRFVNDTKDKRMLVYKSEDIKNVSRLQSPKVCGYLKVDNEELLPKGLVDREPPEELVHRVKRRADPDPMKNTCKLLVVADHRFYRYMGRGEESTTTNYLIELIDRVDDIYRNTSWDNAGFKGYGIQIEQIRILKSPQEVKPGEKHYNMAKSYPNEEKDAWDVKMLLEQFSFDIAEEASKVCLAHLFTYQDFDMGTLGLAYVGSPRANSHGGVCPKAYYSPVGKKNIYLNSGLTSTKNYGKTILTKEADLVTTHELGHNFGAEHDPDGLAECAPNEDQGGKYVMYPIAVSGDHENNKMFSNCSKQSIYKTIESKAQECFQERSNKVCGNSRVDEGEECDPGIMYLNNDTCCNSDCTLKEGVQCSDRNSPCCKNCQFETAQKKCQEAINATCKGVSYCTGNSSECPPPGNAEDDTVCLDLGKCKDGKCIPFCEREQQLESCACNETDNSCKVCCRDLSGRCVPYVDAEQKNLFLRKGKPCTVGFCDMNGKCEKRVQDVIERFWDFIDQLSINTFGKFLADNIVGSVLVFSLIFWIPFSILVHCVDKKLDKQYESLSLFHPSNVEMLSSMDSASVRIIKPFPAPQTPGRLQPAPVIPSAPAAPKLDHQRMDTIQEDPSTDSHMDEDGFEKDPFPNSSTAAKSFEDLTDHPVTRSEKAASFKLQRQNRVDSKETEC
Sequence of Kallikrein-7 (P49862 whole entry, the tested form may be a part): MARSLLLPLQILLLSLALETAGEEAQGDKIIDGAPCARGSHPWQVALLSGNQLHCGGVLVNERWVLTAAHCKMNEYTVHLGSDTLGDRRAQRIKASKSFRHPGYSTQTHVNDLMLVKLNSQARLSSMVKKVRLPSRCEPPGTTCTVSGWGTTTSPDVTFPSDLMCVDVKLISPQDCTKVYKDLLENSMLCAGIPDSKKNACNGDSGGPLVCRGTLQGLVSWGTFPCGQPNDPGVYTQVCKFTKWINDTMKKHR

CC(C)NC(=O)c1nc2ccccc2s1
IC50 [1]: > 67.5 µM (inactive)
EC50 [2]: > 67.5 µM (inactive)

O=C(Cc1cccs1)N1CCC(c2nc(O)c3nnn(Cc4ccccc4)c3n2)CC1
IC50 [3]: > 122 µM (inactive)
IC50 [4]: > 122 µM (inactive)

O=[N+]([O-])c1ccc(Sc2ncccn2)c([N+](=O)[O-])c1
EC50 [5]: 6.83 µM (active)
IC50 [3]: > 123 µM (inactive)
IC50 [4]: > 123 µM (inactive)

O=C(/C=C/c1ccccc1)c1c[nH]c2ccccc12
IC50 [1]: > 67.4 µM (inactive)
EC50 [2]: > 67.4 µM (inactive)

Cc1cc(=O)oc2cc(OCC(=O)N3CCOCC3)c(Cl)cc12
EC50 (Kallikrein-7): > 69.6 µM (inactive)

O=C1NC(=O)C(c2ccc(Cl)cc2)N1 (stereo unspecified)
IC50 [6]: > 69.4 µM (inactive)
IC50 [7]: > 69.4 µM (inactive)

COc1cccc(C(NC(C)=O)c2nc(-c3ccc4ccccc4c3)cs2)c1 (stereo unspecified)
IC50 [6]: > 69.5 µM (inactive)
IC50 [7]: 18.5 µM (inactive)

C[C@@H]1CN([C@@H](C)CO)C(=O)Cc2cc(NS(=O)(=O)c3ccccc3)ccc2O[C@@H]1CN(C)Cc1ccc(Cl)c(Cl)c1
AC50 (HeLa): 43.7 µM (active)

COc1ccc(OC)c(/C=N/NC(=O)CN2CCSCC2)c1
EC50 (Kallikrein-7): 10.5 µM (inactive)

CN1C(=O)/C(=N\c2ccc(O)cc2)c2c3ccccc3c(O)c3cccc1c23
CC50 [8]: 16.8 µM (active)
IC50 [9]: 12.3 µM (active)
CC50 (Vero): > 25 µM (active)
IC50 [6]: > 69.5 µM (inactive)
IC50 [7]: 28.9 µM (inactive)
